We go through five molecules from publication PMC9909137 (Archives of Virology, 2023).

Where two headings read alike, the source gives them in different places.

The subject of data set [1] is A/teal/Egypt/MB.D128OP/2015 (H7N3, 128OP). Put plainly: organism not typed. The class given is cell-based, avian influenza H7N3 virus. Conditions: read-out: IC50 128OP.
Data set [2] has as its system A/Puerto Rico/8/34 (H1N1). Kind of data set: microbe, parasite or virus in culture. The format is cell-based. Conditions: Influenza A virus, H1N1, MDCK, 72 h, read-out: IC50 H1N1.
Data set [3] can be described thus: in vitro. The conditions noted are these: dog.
Data set [4] relates to A/northern shoveler/Egypt/MB.D690OP/2016 (H7N3, 690OP). Put plainly: organism not typed. The format is cell-based, avian influenza H7N3 virus. The conditions noted are these: MDCK, 72 h, read-out: IC50 690OP.
The test system of data set [5] is A/teal/Egypt/MB.D487OP/2016 (H7N3, 487OP). Put plainly: organism not typed. The class given is cell-based, avian influenza H7N3 virus. The conditions noted are these: MDCK, 72 h, read-out: IC50 487OP.
Data set [6] concerns A/teal/Egypt/MB.D125OP/2015 (H7N3, 125OP). Put plainly: organism not typed. The class given is cell-based, avian influenza H7N3 virus. Conditions: MDCK, 72 h, read-out: IC50 125OP.
Data set [7] deals with Madin-Darby canine kidney (MDCK) cells. Conditions: dog.

`NC12CC3CC(CC(C3)C1)C2` [Amantadine, amantadine]: the IC50 – broadly, the concentration that gives 50% inhibition – in data set [1] (MDCK, 72 h) was found to be 45.2 µM; in data set [2], 77.3 µM; in data set [4] it was 6.5 µM; in data set [5] it was 5.17 µM; in data set [6] it was 17 µM. Moreover, the CC50 in data set [3] was found to be 584 µM.

For the molecule `NC(=O)c1nc(F)c[nH]c1=O` [Favipiravir, favipiravir], the IC50 in data set [1] (MDCK, 72 h) was 6.02 µM; in data set [1], 6.02 µM; in data set [2] it was 57.7 µM; in data set [4], 4.5 µM; in data set [5] it was 5.4 µM; in data set [6], 3.9 µM. The same molecule displayed a CC50 in data set [3] of 1250 µM.

In the case of `CCOC(=O)C1=C[C@@H](OC(CC)CC)[C@H](NC(C)=O)[C@@H](N)C1` [Oseltamivir, oseltamivir], the half-maximal inhibitory concentration (IC50) was 85.7 µM in data set [1] (MDCK, 72 h); 51.2 µM in data set [2]; 6.46 µM in data set [4]; 15.7 µM in data set [5]; 408 µM in data set [6]. For the same molecule, the CC50 in data set [3] was found to be 516 µM.

Turning to `CCC(CC)COC(=O)[C@H](C)N[P@](=O)(OC[C@H]1O[C@@](C#N)(c2ccc3c(N)ncnn23)[C@H](O)[C@@H]1O)Oc1ccccc1` [Remdesivir, remdesivir], the IC50 in data set [1] (MDCK, 72 h) worked out at 26 µM; in data set [2], 140 µM; in data set [4] it was 41.6 µM; in data set [5], 19.1 µM; in data set [6], 44.5 µM. Besides, the CC50 in data set [7] turned out to be 997 µM.

With `CC(=O)N[C@H]1[C@H]([C@H](O)[C@H](O)CO)OC(C(=O)O)=C[C@@H]1N=C(N)N` [Zanamivir, zanamivir], the IC50 was found to be 85 µM in data set [1] (MDCK, 72 h); 180 µM in data set [2]; 23.3 µM in data set [4]; 14.1 µM in data set [5]; 17.1 µM in data set [6]. In addition, in data set [3], the CC50 stood at 1110 µM.
